Assay results reported in patent US11519922B2, “Methods for identifying risk of chemotherapy-induced cardiotoxicity and targeted medical intervention” (Detroit R&D, Inc., priority 2018, dated 2022).
“Also recorded” adds a separate entry of the source.

Tests used:
[1] = system: plasma of breast cancer patients; test: Plasma 14,15-DHET by ELISA in breast cancer patients before and after DOX
Procedure: Plasma samples were extracted using ethyl acetate and levels of 14,15-DHET were assessed in triplicate for ELISA.
A blind test for the early biomarker, 14,15-DHET (metabolite of sEH), was carried out with plasma samples from 5 breast cancer patients obtained before and after 3 months of DOX treatment (FIG. 4).
Fatty acids in the plasma samples (50 μl/sample) were extracted with ethyl acetate and levels of 14,15-DHET were assessed in triplicate samples using an ELISA kit from Detroit R&D.
Plasma samples from 5 breast cancer patients obtained before (n=5) and after (n=5) 3 months of DOX treatment (60 mg/m^2/injection for 4 injections).
Biologically active fatty acids in the plasma samples (50 μl/sample) were extracted with ethyl acetate, dried and re-suspended with 30 μl of DMF followed by dilution buffer to 900 μl. Levels of 14,15-DHET were assessed in triplicate using an ELISA kit from Detroit R&D (100 μl/well).

[2] = system: soluble epoxide hydrolase (sEH) in H9c2 cells; test: sEH protein expression by Western blot; format: cell-based, rat; details: 1 μM DOX 2 hr, cells harvested at 6 hr; normalized by beta-actin
Procedure: FIGS. 5A and 5B show the effect of doxorubicin (DOX) on soluble epoxide hydrolase (sEH) expression in rat H9c2 cardiomyocytes cells (A) and NAG-1 (MIC-1, GDF-15), a plasma cardiotoxicity biomarker (B). Panel A, cells harvested at 6 hr with (Lane 2) and without (Lane 1) treatment of doxorubicin (DOX) (2 hr, final concentration 1 μM). Protein expression of sEH, GAPDH and beta-actin expressed in the cells were assessed by Western blot analysis. Expression levels of sEH were normalized by beta-actin protein levels and Panel B, Western blot analysis carried out under non-reducing/non-denaturing condition for NAG-1 protein in plasma samples obtained from healthy subjects (pooled plasma sample, control) and 3 breast cancer patients with cardiovascular disease (cardiotoxicity, Innovative Research);
Increased sEH protein levels after DOX treatment was detected by Western blot analysis using sEH antibody (Detroit R&D) (FIG. 5A).

[3] = system: plasma of breast cancer patients; test: Plasma troponin I (TnI) in breast cancer patients after DOX treatment; format: in vivo, human
[4] = system: rat serum; test: Serum fatty acid biomarkers by ELISA in DOX-treated female rats; format: in vivo; details: DOX 3 mg/kg/week 2 weeks
Procedure: To verify that 14,15-DHET levels can be used as an early biomarker for prediction of DOX-dependent cardiotoxicity as previously found in the rat cardiomyocyte study (FIG. 1 and FIG. 2), levels of 14,15-DHET (sEH metabolite) in serum samples from control and DOX-treated rats with and without 2-week recovery were measured using a 14,15-DHET ELISA kit (Detroit R&D).
Levels of 20-HETE (CYP4A/4F-dependent hypertension biomarker) and 8-isoprostane (non-enzymatic oxidative stress biomarker) in rat serum samples were also measured using 20-HETE and 8-isoprostane ELISA kits, respectively, from Detroit R&D.
Biologically active fatty acids were extracted with ethyl acetate from 75 μl of serum samples (n=4) from control and DOX-treated animals with and without 2 weeks recovery. […] However, two weeks after the second injection (2 weeks recovery), when cardiotoxicity was still not detected, levels of 14,15-DHET (a metabolite of soluble epoxide hydrolase) and 8-isoprostane (non-enzymatic oxidative stress biomarker) were increased compared to the control group (FIG. 3B and FIG. 3D). No changes in levels of 20-HETE in rat serum samples between the two groups were observed (FIG. 3C).

[5] = DOX 3 months followed by one-year trastuzumab, HER2-positive breast cancer patients, ref (5); cited from earlier work

COc1cccc2c1C(=O)c1c(O)c3c(c(O)c1C2=O)C[C@@](O)(C(=O)CO)C[C@@H]3O[C@H]1C[C@H](N)[C@H](O)[C@H](C)O1 [DOX, doxorubicin]
increase of plasma 14,15-DHET ([1]; Patient #3, after vs before 3 months of DOX treatment): ~38%
increase of plasma 14,15-DHET ([1]; Patient #4, after vs before 3 months of DOX treatment): ~55%
plasma 14,15-DHET levels ([1]; Patients #2 and #5, after vs before 3 months of DOX treatment): did not significantly increase
sEH protein levels [2]: Increased
plasma troponin I (TnI) levels ([3]; Patient #3, 3 months after 3 months of DOX treatment): increased
plasma troponin I (TnI) levels ([3]; Patient #4, 3 months after 3 months of DOX treatment): decreased
plasma troponin I (TnI) levels ([3]; Patients #1, #2 and #5 (no cardiotoxicity), 3 months after 3 months of DOX treatment): increased
Serum 20-HETE ([4]; 2 weeks recovery): No change
Serum 8-Isoprostane ([4]; no recovery (~48 hr)): did not significantly change; also recorded: No change
Serum 14,15-DHET ([4]; no recovery (~48 hr)): did not significantly change; also recorded: No change
Serum 20-HETE ([4]; no recovery (~48 hr)): did not significantly change; also recorded: No change
cardiac dysfunction including symptomatic heart failure (HF) [5]: 18%
